# Measurements as given in PubChem BioAssay (NCI).
#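 96-well plates; 48 h exposure; 5 concentrations. Endpoints by linear interpolation between flanking doses. Not reached: highest tested concentration assigned. GI50 marks 50% less growth. TGI: total growth inhibition.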
# How the values were obtained:
# Experiment in all cases: NCI anticancer screen, dose series, 48 h
# [1] = tested on: DU-145 prostate
# [2] = tested on: LOX IMVI melanoma
# [3] = tested on: SNB-19 CNS
# [4] = tested on: CAKI-1 renal
# [5] = tested on: SK-OV-3 ovarian
# [6] = tested on: SR leukemia
# [7] = tested on: NCI/ADR-RES ovarian
# [8] = tested on: U251 CNS
# [9] = tested on: UACC-62 melanoma
# [10] = tested on: NCI-H522 lung
# [11] = tested on: ACHN renal
# [12] = tested on: SK-MEL-28 melanoma
# [13] = tested on: NCI-H460 lung
# [14] = tested on: NCI-H226 lung
# [15] = tested on: SK-MEL-5 melanoma
# [16] = tested on: MDA-MB-435
# [17] = tested on: COLO 205 colon
# [18] = tested on: CCRF-CEM leukemia
# [19] = tested on: HCC-2998 colon
# [20] = tested on: KM12 colon
# [21] = tested on: M14 melanoma
# [22] = tested on: OVCAR-5 ovarian
# [23] = tested on: RXF 393 renal
# [24] = tested on: UO-31 renal
# [25] = tested on: SNB-75 CNS
# [26] = tested on: SN12C renal
# [27] = tested on: HL-60(TB) leukemia
# [28] = tested on: OVCAR-3 ovarian
# [29] = tested on: A498 renal
# [30] = tested on: EKVX NSCLC
# [31] = tested on: HCT-15 colon
# [32] = tested on: RPMI-8226 leukemia
# [33] = tested on: HCT-116 colon
# [34] = tested on: IGROV1 ovarian
# [35] = tested on: K-562 leukemia
# [36] = tested on: OVCAR-4 ovarian
# [37] = tested on: HOP-92 NSCLC
# [38] = tested on: NCI-H23 lung
# [39] = tested on: TK-10 renal
# [40] = tested on: SF-295 CNS
# [41] = tested on: MDA-MB-231 breast
# [42] = tested on: SK-MEL-2 melanoma
# [43] = tested on: HS 578T breast
# [44] = tested on: A549 NSCLC
# [45] = tested on: PC-3 prostate
# [46] = tested on: SF-539 CNS
# [47] = tested on: T-47D breast
# [48] = tested on: 786-0 renal
# [49] = tested on: HT29 colon
# [50] = tested on: SW-620 colon
# [51] = tested on: MCF7 breast
# [52] = tested on: BT-549 breast
# [53] = tested on: MOLT-4 leukemia
# [54] = tested on: UACC-257 melanoma
# [55] = tested on: SF-268 CNS
# [56] = tested on: OVCAR-8 ovarian
# [57] = tested on: HOP-62 NSCLC
smiles,measurement,setting,value
CCCCCCCCCCC(C(O)c1ccccc1)N1CCCCC1 (centres undefined),GI50,[1],2.07 µM
same,TGI,[1],6.72 µM
same,GI50,[2],1.67 µM
same,TGI,[2],3.03 µM
same,GI50,[3],1.84 µM
same,TGI,[3],3.95 µM
same,GI50,[4],1.53 µM
same,TGI,[4],3.06 µM
same,GI50,[5],2.59 µM
same,TGI,[5],7.82 µM
same,GI50,[6],2.13 µM
same,TGI,[6],5.34 µM
same,GI50,[7],2.99 µM
same,TGI,[7],10.7 µM
same,GI50,[8],1.74 µM
same,TGI,[8],3.46 µM
same,GI50,[9],2.01 µM
same,TGI,[9],4.01 µM
same,GI50,[10],1.94 µM
same,TGI,[10],3.91 µM
same,GI50,[11],2.19 µM
same,TGI,[11],4.95 µM
same,GI50,[12],1.83 µM
same,TGI,[12],3.32 µM
same,GI50,[13],1.84 µM
same,TGI,[13],3.36 µM
same,GI50,[14],2.91 µM
same,TGI,[14],12.4 µM
same,GI50,[15],1.69 µM
same,TGI,[15],3.06 µM
same,GI50,[16],1.66 µM
same,TGI,[16],3.03 µM
same,GI50,[17],1.54 µM
same,TGI,[17],2.93 µM
same,GI50,[18],1.97 µM
same,TGI,[18],7.77 µM
same,GI50,[19],1.61 µM
same,TGI,[19],3.07 µM
same,GI50,[20],1.29 µM
same,TGI,[20],2.72 µM
same,GI50,[21],1.87 µM
same,TGI,[21],3.47 µM
same,GI50,[22],2.47 µM
same,TGI,[22],6.85 µM
same,GI50,[23],1.76 µM
same,TGI,[23],3.4 µM
same,GI50,[24],1.24 µM
same,TGI,[24],2.84 µM
same,GI50,[25],2.32 µM
same,TGI,[25],5.65 µM
same,GI50,[26],2.55 µM
same,TGI,[26],10.4 µM
same,GI50,[27],1.96 µM
same,TGI,[27],4.25 µM
same,GI50,[28],1.11 µM
same,TGI,[28],2.57 µM
same,GI50,[29],1.92 µM
same,TGI,[29],6.77 µM
same,GI50,[30],2.09 µM
same,TGI,[30],6.08 µM
same,GI50,[31],1.63 µM
same,TGI,[31],4.38 µM
same,GI50,[32],1.9 µM
same,TGI,[32],4.34 µM
same,GI50,[33],1.62 µM
same,TGI,[33],3.01 µM
same,GI50,[34],1.5 µM
same,TGI,[34],3.15 µM
same,GI50,[35],2.19 µM
same,TGI,[35],5.93 µM
same,GI50,[36],3.66 µM
same,TGI,[36],13.2 µM
same,GI50,[37],1.82 µM
same,TGI,[37],3.83 µM
same,GI50,[38],2.27 µM
same,TGI,[38],5.97 µM
same,GI50,[39],2.16 µM
same,TGI,[39],4.83 µM
same,GI50,[40],1.83 µM
same,TGI,[40],3.23 µM
same,GI50,[41],1.76 µM
same,TGI,[41],3.69 µM
same,GI50,[42],2.25 µM
same,TGI,[42],4.84 µM
same,GI50,[43],2.02 µM
same,TGI,[43],4.52 µM
same,GI50,[44],4.61 µM
same,TGI,[44],17.1 µM
same,GI50,[45],3.43 µM
same,TGI,[45],12.4 µM
same,GI50,[46],2.06 µM
same,TGI,[46],3.84 µM
same,GI50,[47],1.91 µM
same,TGI,[47],4.35 µM
same,GI50,[48],1.78 µM
same,TGI,[48],3.25 µM
same,GI50,[49],1.72 µM
same,TGI,[49],4.41 µM
same,GI50,[50],1.7 µM
same,TGI,[50],3.21 µM
same,GI50,[51],1.87 µM
same,TGI,[51],3.43 µM
same,GI50,[52],4.57 µM
same,TGI,[52],16.5 µM
same,GI50,[53],2.23 µM
same,TGI,[53],5.86 µM
same,GI50,[54],2.02 µM
same,TGI,[54],4.28 µM
same,GI50,[55],1.51 µM
same,TGI,[55],4.73 µM
same,GI50,[56],3.29 µM
same,TGI,[56],13 µM
same,GI50,[57],1.91 µM
same,TGI,[57],3.78 µM
